Test results published in publication PMC12543283, “TastepepAI: An artificial intelligence platform for taste peptide de novo design” (PLOS Computational Biology, 2025).
Ends that are not written are not given here.

Columns and labels:
[1] = test system: human bronchial epithelial cells (BEAS-2B)
Protocol: (§1) The cytotoxicity of 73 synthetic peptides was evaluated using four human cell lines: human pancreatic ductal epithelial cells (HPNE), human embryonic kidney cells (HEK293T), human umbilical vein endothelial cells (HUVEC), and human bronchial epithelial cells (BEAS-2B). When cell density reached 70% confluence, the complete culture medium was replaced with serum-free maintenance medium, and peptides were added at a final concentration of 100 μM for 36 h. Control groups received only serum-free maintenance medium without peptides. Cell proliferation was assessed using the CCK-8 assay kit (Solarbio, CA1210) according to the manufacturer’s instructions.

[2] = test system: human embryonic kidney cells (HEK293T)
[3] = test system: human umbilical vein endothelial cells (HUVEC)
[4] = Electronic tongue analysis (Taste-Sensing System SA 402B); parameters: unit not given here; details: reference solution 30 mM KCl + 0.3 mM tartaric acid as baseline, first measurement excluded; for Umami: sensor AAE; for Umami / Bitter / Sweet: detection threshold 0, room temperature; for Umami / Bitter / Sour / Salty: four replicates; for Sour: detection threshold -13, room temperature; for Salty: detection threshold -6, room temperature; for Sweet: measured five times
Summary of the method: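 Samples were tested at 0.1 and 1.0 mg/mL on an SA 402B e-tongue fitted with sourness, saltiness, bitterness, sweetness and umami sensors, with 30 mM KCl/0.3 mM tartaric acid as reference and baseline. Thresholds were −13 for sour, −6 for salty and 0 for the rest. Runs at room temperature: four replicates, five for sweetness, first reading discarded.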

[5] = test system: human pancreatic ductal epithelial cells (HPNE)
Protocol: as §1

Substance | Average cell viability, BEAS-2B [1] | Cell viability, BEAS-2B, Data1 [1] | Cell viability, BEAS-2B, Data2 [1] | Cell viability, BEAS-2B, Data3 [1] | Average cell viability, HEK293T [2] | Cell viability, HEK293T, Data1 [2] | Cell viability, HEK293T, Data2 [2] | Cell viability, HEK293T, Data3 [2] | Average cell viability, HUVEC [3] | Cell viability, HUVEC, Data1 [3] | Cell viability, HUVEC, Data2 [3] | Cell viability, HUVEC, Data3 [3] | Umami ([4]; peptide 0.1 mg/mL) | Umami ([4]; peptide 1 mg/mL) | Bitter ([4]; sensor C00, peptide 0.1 mg/mL) | Bitter ([4]; sensor C00, peptide 1 mg/mL) | Sour ([4]; sensor CA0, peptide 0.1 mg/mL) | Sour ([4]; sensor CA0, peptide 1 mg/mL) | Salty ([4]; sensor CT0, peptide 0.1 mg/mL) | Salty ([4]; sensor CT0, peptide 1 mg/mL) | further results
SNDPVA [TaPep71] | 108.14 | 100.40 | 109.77 | 114.26 | 97.98 | 102.11 | 95.68 | 96.15 | 96.51 | 91.41 | 97.95 | 100.19 | 1.39 | -5.94 | 7.30 | 4.11 | -2.77 | 14.75 | -20.93 | 9.59 | Sweet ([4]; sensor GL1, peptide 0.1 mg/mL): 5.63; Sweet ([4]; sensor GL1, peptide 1 mg/mL): -5.65; Average cell viability, HPNE [5]: 94.64; Cell viability, HPNE, Data1 [5]: 86.86; Cell viability, HPNE, Data2 [5]: 82.76; Cell viability, HPNE, Data3 [5]: 114.31
STGTIR [TaPep51] | 98.34 | 100.20 | 97.01 | 97.81 | 100.60 | 100.60 | 99.65 | 101.55 | 103.43 | 102.66 | 96.59 | 111.04 | 3.88 | -2.27 | 9.91 | 7.16 | -8.80 | 5.93 | -19.53 | 8.48 | Sweet ([4]; sensor GL1, peptide 0.1 mg/mL): 12.64; Sweet ([4]; sensor GL1, peptide 1 mg/mL): -1.16; Average cell viability, HPNE [5]: 102.86; Cell viability, HPNE, Data1 [5]: 115.31; Cell viability, HPNE, Data2 [5]: 89.05; Cell viability, HPNE, Data3 [5]: 104.23
SVLEFS [TaPep52] | 105.65 | 105.38 | 103.19 | 108.37 | 99.31 | 102.87 | 97.95 | 97.10 | 102.10 | 102.10 | 88.93 | 115.27 | 2.84 | -2.08 | 7.49 | 4.10 | -6.24 | 5.72 | -20.56 | 3.13 | Sweet ([4]; sensor GL1, peptide 0.1 mg/mL): 9.54; Sweet ([4]; sensor GL1, peptide 1 mg/mL): -1.51; Average cell viability, HPNE [5]: 109.12; Cell viability, HPNE, Data1 [5]: 112.31; Cell viability, HPNE, Data2 [5]: 112.11; Cell viability, HPNE, Data3 [5]: 102.93
TAEQVA [TaPep33] | 98.57 | 90.33 | 99.90 | 105.48 | 102.24 | 97.67 | 105.05 | 104.01 | 104.47 | 106.25 | 114.32 | 92.84 | 1.93 | -0.93 | 7.77 | 3.28 | -4.09 | 10.86 | -19.69 | 10.92 | Sweet ([4]; sensor GL1, peptide 0.1 mg/mL): 8.49; Sweet ([4]; sensor GL1, peptide 1 mg/mL): -5.32; Average cell viability, HPNE [5]: 106.02; Cell viability, HPNE, Data1 [5]: 118.30; Cell viability, HPNE, Data2 [5]: 86.46; Cell viability, HPNE, Data3 [5]: 113.31
TDPELV [TaPep60] | 110.77 | 105.88 | 117.95 | 108.47 | 103.06 | 105.62 | 98.99 | 104.57 | 102.29 | 91.72 | 106.41 | 108.73 | 1.33 | -5.30 | 7.64 | 3.00 | -2.65 | 12.51 | -20.71 | 9.00 | Sweet ([4]; sensor GL1, peptide 0.1 mg/mL): 5.70; Sweet ([4]; sensor GL1, peptide 1 mg/mL): -9.69; Average cell viability, HPNE [5]: 111.81; Cell viability, HPNE, Data1 [5]: 114.61; Cell viability, HPNE, Data2 [5]: 113.81; Cell viability, HPNE, Data3 [5]: 107.02
